Tests used:
[1] = system: HDMECs infected with Nm 2C4.3; test: Integrity of HDMEC monolayers infected with N. meningitidis (VE-cadherin at intercellular junctions, immunofluorescence); assay type: cell-based, human; settings: 1 μg/mL added 30 min after initiation of Nm infection, 2 h 30
Method: FIG. 1. Exogenous ANGPTL4 exerts protective effects on dermal microvascular endothelial cells infected by N. meningitidis. A. HDMECs were infected with Nm 2C4.3 for 30 min and treated with 1 μg/mL of recombinant human ANGPTL4 for 2 h 30. Cells were fixed and stained for cellular actin, VE-cadherin and DAPI and analyzed by fluorescent microscopy. Quantifications of VE-cadherin enrichment at intercellular junctions and of intercellular spaces area were performed on 30 fields with Image J software. Kruskal-Wallis test ** P<0.001; P<0.0001. B. HDMEC were either uninfected or infected with N. meningitidis 2C4.3 for 30 min and treated with 1 μg mL−1 of recombinant human ANGPTL4, its N-terminal portion (nANGPTL4) or its C-terminal portion (cANGPTL4) for 2 h 30. Caspase-3/7 reagent was added to detect apoptosis in real time over 9 h using the IncuCyte® Live-Cell Analysis System
FIG. 2: Vascular protection is conferred by the N-terminal part of ANGPTL4. A, Schematic representation of ANGPTL4 structure. ANGPTL4 contains a N-terminal portion (nANGPTL4, aa 26-164) linked to a C-terminal portion (cANGPTL4, aa 164-406) by a cleavable linker. nANGPTL4 contains a highly conserved lipoprotein lipase (LPL) binding domain (aa 44-55), two cysteines on position 76 and 80 involved in protein oligomerization and a coiled-coil domain (aa 100-143). The C-terminal portion encodes a fibrinogen-like domain. B, HDMECs were infected with Nm 2C4.3 for 30 min and treated with 1 μg/mL of recombinant human ANGPTL4, nANGPTL4 or cANGPTL4 for 2 h 30. Cells were fixed and stained for cellular actin, VE-cadherin and DAPI and analyzed by fluorescent microscopy. B. Quantifications of VE-cadherin enrichment at intercellular junctions and of intercellular spaces area were performed on 30 fields with Image J software. Kruskal-Wallis test ** P<0.001, *** P<0.0001 of four independent experiments performed in triplicate.
FIG. 3: Vascular protection is conferred by a novel binding motif (aa 66-80) present in the N-terminal part of ANGPTL4. A, the indicated peptides were derived from nANGPTL4. B, HDMECs were infected with Nm 2C4.3 for 30 min and treated with 1 μg/mL of each peptides. Quantifications of VE-cadherin enrichment at intercellular junctions was performed on 30 fields with Image J software.
FIG. 4: Vascular protection is conferred by interaction of nANGPTL4 with Syndecan-4. A, HDMECs were infected with Nm 2C4.3 for 30 min and treated with 1 μg/mL of recombinant human ANGPTL4, nANGPTL4 or cANGPTL4 in the absence or in the presence of anti-SDC4 antibody for 2 h 30. Cells were fixed and stained for cellular actin, VE-cadherin and DAPI and analysed by fluorescent microscopy. Quantifications of VE-cadherin enrichment at intercellular junctions and of intercellular spaces area were performed on 30 fields with Image J software. Kruskal-Wallis test ** P<0.001, **** P<0.00001, ns1 P=0.2172; ns2 P>0.999 of four independent experiments performed in triplicate. B, HDMECs were transfected with small interfering RNA (siRNA) against SDC4 or non-targeting siRNA controls for 48 h, infected with Nm 2C4.3 for 30 min and treated with 1 μg/mL of recombinant human ANGPTL4, for 2 h 30. Quantifications of VE-cadherin enrichment at intercellular junctions and of intercellular spaces area were performed on 30 fields with Image J software. Kruskal-Wallis test ** P<0.001, *** P<0.0001, of two independent experiments performed in triplicate.
The day of infection, a suspension of the bacteria from an overnight culture on GCB agar plate was adjusted to OD600=0.05 and incubated for 2 h at 37° C. in a pre-warmed cell culture medium. Cells were infected with bacteria at a multiplicity of infection (MOI) of 100 bacteria per cell (OD=0.1) for 30 minutes, washed twice to remove non-adherent bacteria and infection was allowed to proceed for various periods of time. Cells were then washed and fixed in 4% paraformaldehyde for immunofluorescence analysis. […]

[2] = system: Balb/c mice challenged with LPS; test: LPS-induced endotoxemia (sepsis) in mice; assay type: in vivo; settings: LPS 5 mg kg-1 i.p.; 2 μg/mouse i.v.
Method: FIG. 9: ANGPTL4 protects against LPS-induced endotoxemia by preventing vascular dysfunction and organ failure. A-B, Balb/c mice received LPS (5 mg kg-1, i.p.); 30 min after LPS challenge, mice received recombinant human ANGPTL4 (2 μg, intravenously), or vehicle as a control. A, A schematic representation of the protocol used. B, Survival curve (n=16 mice per group): **** P<0.0001; two-sided log-rank Mantel-Cox survival analysis. C,D, Balb/c mice received LPS (5 mg kg-1, i.p.); 30 min after LPS challenge, mice received nANGPTL4 (2 μg, intravenously), or vehicle as a control. C, A schematic representation of the protocol used. D, Survival curve (n=6 mice per group): ** P=0.0033; two-sided log-rank Mantel-Cox survival analysis. E, F, Balb/c mice received LPS (5 mg kg-1, i.p.); 30 min after LPS challenge, mice received Peptide 1 (2 μg, intravenously), or vehicle as a control. E, A schematic representation of the protocol used. F, Survival curve (n=6 mice per group): * P=0.0163; two-sided log-rank Mantel-Cox survival analysis. G, Balb/c mice received LPS (5 mg kg-1. i.p.): 30 min after LPS challenge, mice received recombinant human peptide P9 (2 μg. intravenously). or vehicle as a control. Survival curves (n=6 mice per group). *** P<0.001: two-sided log-rank Mantel-Cox survival analysis. H. Balb/c mice received LPS (4 mg kg-1. i.p.) together with anti-ANGPTL4 blocking antibody (10 μg kg-1. i.v) or vehicle as a control. 18 h after LPS challenge. mice were perfused with Evans blue for 1 h. were killed and brain were extracted. Quantification analysis of Evans blue extravasation (n=4 mice per group). Bars and error bars show the mean±s.e.m., respectively, from two independent experiments: *** P<0.001: NS, not significant (P>0.05) one-way ANOVA Tukey's multiple comparison test.
Female BALB/c mice, obtained from Janvier Labs, 9-10 weeks of age, were administered LPS at 5 mg/kg intraperitoneally and survival was monitored for 72 h (n=12 per group). BALB/c mice were randomly divided into 2 groups: LPS and LPS+Angptl4. Angptl4 (2 μg/mice) or vehicle (physiological saline solution) was administered intravenously 30 min after LPS challenge. In some experiments, blood serum, kidney and lung were collected at 18 h post-LPS challenge. Kidney and lungs were fixed in 4% PFA, embedded in paraffin, and 5-μm sections were cut from each block and stained with H&E. The stained sections were observed and acquired using a slide scanner (Lamina, Perkin Elmer). Analysis of the images was performed using ImageJ software (NIH).
Since severe endothelial dysfunction, leading to dysregulation of hemostasis and vascular dysfunction, is central to the progression to organ failure during sepsis, we analysed whether ANGPTL4 could play a protective role in sepsis, using a lipopolysaccharide (LPS)-induced endotoxemia (FIG. 9A). After LPS-challenge (5 mg kg-1, i.p.), all mice died within two days (FIG. 9B).

[3] = system: SCID mice grafted with human skin infected with Nm 2C4.3; test: Outcome of meningococcal infection in SCID mice grafted with human skin (survival, with or without antibiotics); assay type: in vivo; settings: 200 mg kg-1 cefotaxime
Method: A-D, SCID mice grafted with human skin were infected intravenously with Nm 2C4.3 wild-type strain (5×10^6 bacteria); 2 h after bacterial challenge, mice received recombinant human ANGPTL4 (1 μg, intravenously), cefotaxime (200 mg kg-1, intraperitoneally) alone or in combination with ANGPTL4 or vehicle as a control. 18 h following bacterial challenge, ANGPTL4 (1 μg) and cefotaxime (200 mg kg-1) were re-administered. This experiment was performed twice with n=3 or 4 mice per group, using skin from two different donors. A, A schematic representation of the protocol used in vivo. B, Bacteraemia 4, 18, 48 and 72 h post-infection (mean±s.e.m.). C, Survival curve: * P=0.0275; two-sided log-rank Mantel-Cox survival analysis. D, Thrombosis within the skin grafts at 4 h post-infection was assessed by immunofluorescence analysis and quantified as described in FIG. 8 (error bars show mean±s.e.m.; 40 vessels per mouse were analysed; n=4 mice per group; *** P<0.001; two-tailed Student's t-test.
Six-week-old CB17/Icr-Prkdcscid female mice were obtained from Janvier Labs. Human skin tissues were obtained from adult patients undergoing plastic surgery in the Service de Chirurgie Plastique et Reconstructive of the Groupe Hospitalier Saint-Joseph. […] Experimental procedures were performed as previously described in accordance with the guidelines of the Institut National de la Santé et de la Recherche Médicale and conformed to the European ethical legislation (Directive 2010/63/EU). The experimental protocol was approved by the Animal Experimentation Ethics Committee of the Université Paris Descartes (consent forms CEEA34.O.J.L.039.12 and 2018012515596498). […] A skin flap was created and a full thickness human skin graft was placed onto the wound bed. The transplants were held in place with 6-0 non-absorbable monofilament suture materials, and the flap was then sutured above the transplant. Grafted mice were infected 4-6 weeks after human skin transplantation. N. meningitidis was grown overnight at 37° C. on GCB agar plates prepared without iron and supplemented with 15 μM deferoxamine (Desferal, Novartis). Bacterial colonies were harvested and cultured in RPMI media with 1% BSA medium and 0.06 μM deferoxamine with gentle agitation to reach the exponential phase of growth. Bacteria were then resuspended in physiological saline solution. Mice were infected intravenously with 200 μl (5×10^6 bacteria) of this bacterial suspension. A 10 mg dose of human holotransferrin (R&D Systems) was administered intraperitoneally just before infection. Mice were killed at 4 h after infection. Human skin grafts were carefully collected using a sterile cutter. The tissue was washed in PBS and fixed overnight at 4° C. in 4% paraformaldehyde in phosphate buffer. After washing in phosphate buffer, the specimens were embedded in OCT medium and then frozen at −80° C. Sections of the dermis (7 μm thick) were immobilized on Superfrost Plus microscope slides and subjected to immunofluorescence analysis. Sections were incubated with the primary antibodies for 1 h in PBS/3% BSA then DAPI was added to Alexa-conjugated secondary antibodies for 1 h. After additional washing, coverslips were mounted in glycergel (Dako) and were further analysed using a slide scanner (Lamina, Perkin Elmer). Analysis of the images was performed using ImageJ software (NIH). […]
We then analysed whether ANGPTL4 could provide a beneficial effect when administered with antibiotics.

## WDEMNVLAHGLLQLGQGLREHAERTRSQLSALERRLSACGSACQGT (Peptide P1)
[1]
  protective effect on monolayer integrity (adherens junctions, cell detachment) of infected HDMECs: sufficient to prevent loss of adherens junctions and cell detachment induced by infection as efficiently as the full-length protein
[2]
  sepsis-associated mortality / survival rate: reduced sepsis-associated mortality rate as efficiently as the full-length protein

## LSALERRLSACGSAC (Peptide P9)
[1]
  protective effect on monolayer integrity (adherens junctions, cell detachment) of infected HDMECs: completely inhibited infection-induced damages
[2]
  sepsis-associated mortality / survival rate: reduced sepsis-associated mortality rate as efficiently as the full-length protein

## SALERRLSACGS (Peptide P10)
[1]
  protective effect on monolayer integrity (adherens junctions, cell detachment) of infected HDMECs: no effect
[2]
  sepsis-associated mortality / survival rate: did not significantly increased the survival rate

## CO/N=C(\C(=O)N[C@@H]1C(=O)N2C(C(=O)O)=C(COC(C)=O)CS[C@H]12)c1csc(N)n1 [cefotaxime]
[3]
  bactericidal effect (bacteraemia): strong bactericidal effect
  mice survival: associated with mice survival
  thrombosis at 4 h post-infection: did not prevent the triggering of thrombosis

Source: patent publication US20250163116A1, “NEW METHOD TO TREAT INFECTIOUS DISEASES” (INSERM (INSTITUT NATIONAL DE LA SANTÉ ET DE LA RECHERCHE …, priority 2022, published 2025)
